Source: patent US20240201205A1, “METHOD FOR DETECTING NEUROLOGICAL DISEASES USING SUPRAMOLECULE POLYMER THERAPEUTICS” (The Regents of the University of California, priority 2022, published 2024)

Experiments:
[1] = target: T1, YFP-tagged full length 0N4R-Tau carrying a P301S mutation (T24 cells) (Homo sapiens, UniProt P10636, P618S); experiment: Tau-AD high throughput screening (counter screen); format: cell-based; conditions: final test concentration of 10 μM; T24 cells transfected with 416-AD11A lysate; 72 h; control is DMSO
T1 construct: C-terminally YFP-tagged full length 0N4R-Tau carrying a P301S mutation (T24 cells); expressed in transfected cells
Method: A fragment of the Middle Tempral Gyrus (MTG) from Alzheimer's Disease (AD) patient 2217 was resuspended in 9 volumes of PBS (ml/g of brain) and homogenized 3×12 seconds using a probe homogenizer (Thomas Scientific) with disposable Omni Tip plastic homogenizing probes (Thomas Scientific Cat No 3409Y77) to generate a 10% brain homogenate (10% AD11-BH). The 10% AD11-BH was clarified of insoluble debris by centrifugation at 800×g for 5 minutes. The resulting supernatant was collected and the protein concentration of this clarified BH (AD11-CBH) was determined by bicinchoninic acid assay (BCA) (Thermo Fisher Cat No. 23227). HEK293 cells stably expressing a C-terminally Clover-tagged truncated 4R-Tau^243-382 transgene containing the P301L and V337M mutations and a C-terminally Ruby-tagged truncated 3R-Tau^243-382 transgene containing the L266V and V337M mutations (128/139 cells) were transfected with the AD11-CBH using lipofectamine 2000 (LF2K) (Thermo Fisher Cat No. 11668500). Briefly, 0.32 μl of LF2K were diluted in 5 μl Opti-MEM (Thermo Scientific Cat No 31985070) per well of a 384-well plate and incubated for 5 min at room temperature (RT). This mixture was added to 0.32 μg of AD11-CBH diluted in 5 μl of PBS per well of a 384-well plate and vortex briefly. The transfection mixture was incubated at room temperature for 90 min. The transfection complexes were subsequently added to a single well of a 384-well plate containing 3500 128/139 cells. After 3 days the cells were harvested, counted and plated at a density of 1 cell/well in a 96-well plate. A clonal cell line containing Clover and Ruby positive Tau aggregates was selected and termed 416-AD11A cells. Following the expansion of these 416-AD11A cells, a cell lysate was prepared by freeze/thaw. The cells from a confluent T175 flask were harvested in 1 ml of PBS containing 1× protease inhibitor cocktail by scraping. The cell suspension was subjected to 4 cycles of freezing in liquid nitrogen for 5 minutes followed by thawing at 37° C. for 5 minutes. The resulting cell lysate was centrifuged at 2000 RPM for 10 minutes to remove the cell debris and the protein concentration of the resulting 416-AD11A lysate was determined by BCA assay and aliquots frozen for future use.
HEK293 cells stably expressing C-terminally YFP-tagged full length 0N4R-Tau carrying a P301S mutation (T24 cells) are plated at a density of 4000 cells per well of a 384-well black walled, clear bottom plate (Greiner Cat No 5678-1091Q) in 60 μl of complete DMEM (DMEM (Corning Cat No 10-013-CV), 10% FBS (VWR Cat No 97068-085, 0.5% Penicillin/streptomycin (Gibco Cat No 15140-122)) containing 0.1 μg/ml Hoechst Dye (Thermo Scientific Cat No H3570). Transfection complexes are prepared by diluting 0.15 μg of 416-AD11A lysate or HEK lysate in 5 μl of PBS per well to be transfected and 0.15 μl of Lipofectamine 2000 (LF2K) (ThermoFisher Cat No 11668500) in 5 μl of Opti-MEM per well to be transfected in separate tubes. The pre-diluted 416-AD11A or HEK lysates and LF2K are subsequently mixed and allowed to incubate for 90 minutes at RT. A 10 μl aliquot of the 416-AD11A or HEK transfection complexes is added to the appropriate wells of the 384-well plate containing the T24 cells using the Bravo liquid handling platform (Agilent). Wells A23-P24 of the 384-well plate are transfected with HEK lysate to act as a reference point for spontaneous aggregation of 0N4R^P301S and for transfection related toxicity. The dilution of test compounds is performed using the Bravo liquid handling platform (Agilent). The control is DMSO in the absence of any test compound. Briefly, 1 μl of each test compound (5 mM stock) in the 384-well test plate was transferred to a 384-well plate (Greiner Cat No 781280) containing 61.5 μl of complete DMEM to generate a working stock of compounds at 80 μM. […]

[2] = target: T2, α-synuclein fibrils isolated from an MSA patient sample (Homo sapiens, UniProt P37840); experiment: Cryo-EM co-structures of compounds with α-synuclein fibrils from MSA patient; format: binding; conditions: for binding to α-synuclein fibrils (cryo-EM co-structure): fibrils from MSA patient sample, 20 μM ligand
T2 construct: fresh-frozen tissue from the cerebellum of patients clinically and neuropathologically diagnosed with MSA; from tissue; host or cells: cerebellum of MSA patients (sarkosyl-insoluble filament preparation)
Method: MSA filament purification. Filament purification was based on Schweigenhauser et al., 2020^2. Briefly, 1-2 g of fresh-frozen tissue from the cerebellum of patients clinically and neuropathologically diagnosed with MSA was homogenized at 20 mL/g of tissue in 10 mM Tris-HCl (pH 7.4), 800 mM NaCl, 1 mM EGTA, and 10% sucrose. A final concentration of 1% N-laurosarcosinate (w/v) was added to the homogenates, and these mixtures were incubated at 37° C. for 30 minutes. Homogenates were then centrifuged at 10,000 g for 10 minutes, and the supernatant was kept and then centrifuged at 100,000 g for 20 minutes. The pellets were resuspended at 500 μL/g of frozen tissue in 10 mM Tris-HCl (pH 7.4), 800 mM NaCl, 1 mM EGTA, and 10% sucrose. This was followed by another centrifugation at 3,000 g for 5 minutes. The supernatant was kept and diluted threefold with 50 mM Tris-HCl (pH 7.4), 150 mM NaCl, 10% sucrose, and 2% sarkosyl, followed by another centrifugation at 150,000 g for 1 hour. The final pellet resuspended in 30 mM Tris-HCl (pH 7.4) at a concentration of 100 μL/g frozen tissue.
Cryo-EM sample preparation and data collection. Purified frontal cortex and cerebellum tissue was incubated with 20 μM ligand for 45 minutes prior to freezing. For the tau PHF, 3 μL of purified filaments mixed with GTP-1 was added to a glow-discharged 200 mesh 1.2/1.3R Au Quantifoil grid for 10 seconds before blotting for 2 seconds, and then a second 3 μL aliquot was added for 3 seconds and blotted for 1 second before being plunge frozen in liquid ethane using a FEI Vitrobot Mark IV (Thermo Fisher Scientific). For the synuclein ligands, 3 μL of purified filaments mixed with compound was added to a 200 mesh 1.2/1.3R Au Quantifoil grid coated with a 2 nm thick layer of carbon, which had not been glow discharged. After 30 seconds, grids were blotted for 7.5 seconds at room temperature and 100% humidity. Grids were plunge frozen in liquid ethane using a FEI Vitrobot Mark IV. […] A defocus range of 0.8 to 1.8 μm was used with a total exposure time of 2.024 seconds fractionated into 0.025 seconds subframes. The total dose for each movie was 46 electrons/Å^2. Movies were motion-corrected using MotionCor2^3 in Scipion^4 and were Fourier cropped by a factor of 2 to a final pixel size of 0.834 Å per pixel.
Image processing. All image processing was done in RELION 4^5, and the same workflow was used for each dataset. Dose-weighted summed micrographs were imported into RELION 4. The contrast transfer function was estimated using CTFFIND-4.1^6. Filaments were manually picked and then segments were extracted with a box size of 900 pixels downscaled to 300 pixels. Contaminants and segments contributing to straight filaments were separated out using reference-free 2D class averaging. The remaining segments were re-extracted with a box size of 288 pixels without downscaling. An initial model was generated from a cylinder in RELION. One or more rounds of 3D classification with image alignment were performed, with helical rise and […] parameters fixed to eliminate obvious junk particles. One or more rounds of 3D auto-refinement was run using the best map from 3D classification low-pass filtered to 10 Å, allowing rise and twist parameters to vary. Maps were sharpened using the standard post-processing procedures in RELION.
Model building, refinement, and analysis. Prior to ligand placement, a single strand of a previously solved MSA or tau PHF filament structure^2 (PDB: 6XYQ) was refined against the density using Phenix^7. Refinement of the ligand binding pocket was done in COOT^8. Ligands were placed by hand in the density using Chimera^9. This model was then translated to give a stack spanning 5 rungs.

T1 sequence (P10636 1-383 isoform P10636-6 P243S): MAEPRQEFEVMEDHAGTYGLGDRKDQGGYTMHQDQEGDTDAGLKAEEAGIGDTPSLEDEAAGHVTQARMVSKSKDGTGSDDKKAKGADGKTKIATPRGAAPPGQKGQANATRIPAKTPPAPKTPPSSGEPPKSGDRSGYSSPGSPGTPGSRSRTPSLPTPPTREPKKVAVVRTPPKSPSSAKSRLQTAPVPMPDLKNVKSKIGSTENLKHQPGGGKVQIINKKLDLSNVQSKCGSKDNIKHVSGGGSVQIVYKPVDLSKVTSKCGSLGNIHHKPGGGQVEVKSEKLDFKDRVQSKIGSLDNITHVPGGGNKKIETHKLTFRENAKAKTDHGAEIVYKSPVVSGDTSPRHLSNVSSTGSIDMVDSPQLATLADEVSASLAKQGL

Row | SMILES | AD Tau Aggregates (% control) [1] [% control] | other results
1 | CNC(=O)c1ncc2c(-c3cccc4c3OC(F)(F)O4)nn(Cc3ccccc3)c2n1 [Compound 254] | 100 | 
2 | CNC(=O)c1ncc2c(-c3ccccc3)nn(Cc3ccccc3)c2n1 [Compound 248] | 95 | 
3 | Cc1nccc2cc(-c3nc(-n4ccc5cccnc5c4=O)c(-c4ccc(C(F)(F)F)cc4)o3)ccc12 [compound 427] |  | binding to α-synuclein fibrils (cryo-EM co-structure) [2]: bound to fibrils isolated from an MSA patient sample
4 | CC(=O)Nc1ncc2c(-c3ccccc3)nn(C(C)c3ccccc3)c2n1 (stereo not drawn) [Compound 265] | 110 | 
5 | CNc1nc(=O)n(-c2nc(-c3cccc(Cl)c3)oc2-c2ccc(Cl)c(F)c2)cc1F [Compound 125, 1-(5-(4-chloro-3-fluorophenyl)-2-(3-chlorophenyl)oxazol-4-yl)-5-fluoro-4-(methylamino)pyrimidin-2(1H)-one] |  | binding to α-synuclein fibrils (cryo-EM co-structure) [2]: bound to fibrils isolated from an MSA patient sample
6 | CCc1ccccc1-c1nn(-c2ccc(F)cc2)c2nc(C(=O)NC)ncc12 [Compound 245] | 120 | 
7 | O=c1nc2c(ccn2C(F)(F)F)cn1-c1nc(N2Cc3ccccc3C2)oc1-c1ccc(F)cc1 [Compound 242] | 99 | 
8 | COC(=O)Nc1ncc2c(-c3ccccc3)nn(-c3ccccc3)c2n1 [Compound 274] | 94 | 
9 | CC(=O)Nc1ncc2c(-c3ccccc3)nn(Cc3ccncc3)c2n1 [Compound 279] | 92 | 
10 | CCC(=O)Nc1ncc2c(-c3ccccc3)nn(Cc3ccc(OC)cc3)c2n1 [Compound 269] | 100 | 
11 | CNC(=O)c1ncc2c(-c3ccnc(C(C)(F)F)n3)nn(-c3ccc(Cl)cc3)c2n1 [Compound 22, 1-(4-chlorophenyl)-3-(2-(1,1-difluoroethyl)pyrimidin-4-yl)-N-methyl-1H-pyrazolo[3,4-d]pyrimidine-6-carboxamide] |  | binding site on α-synuclein ([2]; cryo-EM, residues of SEQ ID NO: 9): bound to residues 86-99 of α-synuclein; binding to α-synuclein fibrils (cryo-EM co-structure) [2]: bound to fibrils isolated from an MSA patient sample
12 | CC(=O)Nc1ncc2c(-c3ccccc3C)nn(Cc3ccccc3)c2n1 [Compound 266] | 98 | 
13 | CNC(=O)c1ncc2c(-c3ccc(F)cc3)nn(Cc3cccc(F)c3)c2n1 [Compound 260] | 95 | 
14 | CNC(=O)c1ncc2c(-c3cc4c(cnn4C)cc3F)nn(Cc3ccccc3)c2n1 [Compound 253] | 96 | 
15 | O=c1nc2c(ccn2C(F)(F)F)cn1-c1nc(-c2ccnc(C3CC3)n2)oc1-c1ccc(F)cc1 [compound 293] |  | binding to α-synuclein fibrils (cryo-EM co-structure) [2]: bound to fibrils isolated from an MSA patient sample
16 | O=C(Cn1cc(-c2ccoc2)c(=O)c2ccc(N3CCCC3)cc21)Nc1ccccc1C(F)(F)F [Compound 149, 2-[3-(furan-3-yl)-4-oxo-7-(pyrrolidin-1-yl)-1,4-dihydroquinolin-1-yl]-N-[2-(trifluoromethyl)phenyl]acetamide] |  | binding to α-synuclein fibrils (cryo-EM co-structure) [2]: bound to fibrils isolated from an MSA patient sample
17 | Cc1cc(-c2nc(-n3cc4ccn(C5CC5)c4nc3=O)c(-c3ccc(F)c(F)c3)o2)ncc1F [Compound 234] | 85 | 
18 | Cc1ccn(-c2nc(-n3cc4ccn(C(F)(F)F)c4nc3=O)c(-c3ccc(F)cc3)o2)n1 [Compound 241] | 98 | 
19 | CNC(=O)c1ncc2c(-c3ccc(F)cc3)nn(CC3CCCCC3)c2n1 [Compound 258] | 110 | 
20 | CNC(=O)c1ncc2c(-c3ccccc3)nn(-c3ccc(F)cc3)c2n1 [Compound 246] | 120 | 
21 | Cc1ccnn1-c1nc(-n2cc3ccn(C(F)(F)F)c3nc2=O)c(-c2ccc(F)cc2)o1 [Compound 240] | 95 | 
22 | CNC(=O)c1ncc2c(-c3ccccc3Cl)nn(-c3ccc(F)cc3)c2n1 [Compound 244] | 100 | 
23 | CC(=O)Nc1ncc2c(-c3ccccc3)nn(CC3CCCCC3)c2n1 [Compound 280] | 90 | 
24 | CC(=O)Nc1ncc2c(-c3ccccc3)nn(Cc3cncc(F)c3)c2n1 [Compound 267] | 91 | 
25 | CNC(=O)c1ncc2c(-c3ccc(F)cc3)nn(Cc3ccc(F)cc3)c2n1 [Compound 261] | 87 | 
26 | CNC(=O)c1ncc2c(-c3ccc(F)cc3)nn(Cc3ccnc(F)c3)c2n1 [Compound 259] | 99 | 
